Experimental data as given in ChEMBL document CHEMBL6134834, “Aromatic nitroolefin with inhibition efficacy in triple-negative breast cancer cells by dual targeting RXRα and tubulins” (Eur J Med Chem, 2025).

Experiment: Binding affinity to mouse brain tubulin assessed as dissociation constant by SPR analysis

Kd: 80.9 µM
Compound: O=[N+]([O-])CCc1cccc2ccccc12
